Source: patent publication US20120190666A1, “Heteroaryl Compounds as PIKK Inhibitors” (Amgen Inc., priority 2009, published 2012)

How the values were obtained:
[1] = system: phosphorylation of Akt at Serine 473 in U87 MG cells; assay: pAkt AlphaScreen (U87 cell); format: cell-based; conditions: Homo sapiens, U-87 MG, 2 h; pAkt at Serine 473, U87 MG cells, two hours with compound
How it was run: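 U87 MG cells (5K per well, plated overnight) treated 2 h at 37 °C with compound, 25 μM to 11.9 pM final in 0.5% DMSO. Lysates assayed for Akt Ser473 phosphorylation with SureFire AlphaScreen, incubated overnight at room temperature; IC50 from percent of control.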

mTOR = mTOR (Homo sapiens, UniProt P42345); assay: mTOR LanthaScreen (TR-FRET, phosphorylation of 4EBP1); format: biochemical; conditions: phosphorylation of GFP-4E-BP1, 10 μM ATP, 90 minutes
How it was run: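 Final reaction: 400 nM GFP-4E-BP1, 10 μM ATP, 0.15 μg/ml mTOR, compound 50 μM down to 23.84 pM (22-point 1:2 series) in 1% DMSO, buffer with 2 mM DTT; 90 min incubation.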

SMILES: Cc1cc(Nc2cc[nH]n2)n(-c2cc(N)nc(C)n2)n1 [Cpd 18, 6-(5-(1H-pyrazol-3-ylamino)-3-methyl-1H-pyrazol-1-yl)-2-methylpyrimidin-4-amine]
- IC50 [1]: 710 nM
- IC50 (mTOR): 860 nM

SMILES: Cc1nc(N)cc(-c2c(Nc3cccc(N4CCN(C)CC4)c3)nc3cccnn23)n1 [Cpd 151, 3-(6-amino-2-methyl-4-pyrimidinyl)-N-(3-(4-methyl-1-piperazinyl)-phenyl)imidazo[1,2-b]pyridazin-2-amine]
- IC50 [1]: 5380 nM
- IC50 (mTOR): 430 nM

SMILES: COc1ccc(Nc2cc(-c3c(Nc4cc[nH]n4)nc4cccnn34)nc(C)n2)cc1 [Cpd 33]
- IC50 [1]: 290 nM
- IC50 (mTOR): 2840 nM

SMILES: CC(=O)n1ccc(Nc2nc3cccnn3c2-c2cc(N)nc(C)n2)n1 [Cpd 67, N-(1-acetyl-1H-pyrazol-3-yl)-3-(6-amino-2-methyl-4-pyrimidinyl)imidazo[1,2-b]pyridazin-2-amine]
- IC50 [1]: 10 nM
- IC50 (mTOR): 10 nM

SMILES: Cc1nc(N)nc(-c2c(Nc3ccn(C)n3)nc3ccc(-c4ccc(S(C)(=O)=O)cc4)cn23)n1 [Cpd 354]
- IC50 [1]: 100 nM
- IC50 (mTOR): 320 nM

SMILES: Cc1nc(N)cc(-n2nc(C(=O)Nc3cccnc3)cc2Nc2ccn[nH]2)n1 [Cpd 11, 5-(1H-pyrazol-5-ylamino)-1-(6-amino-2-methylpyrimidin-4-yl)-N-(pyridin-3-yl)-1H-pyrazole-3-carboxamide]
- IC50 [1]: 600 nM
- IC50 (mTOR): 820 nM

SMILES: Cc1nc(N)cc(-n2nc(C(=O)N3CCOCC3)cc2Nc2ccn[nH]2)n1 [Cpd 13, (5-(1H-pyrazol-5-ylamino)-1-(6-amino-2-methylpyrimidin-4-yl)-1H-pyrazol-3-yl)(morpholino)methanone]
- IC50 [1]: 280 nM
- IC50 (mTOR): 100 nM

SMILES: Cc1nc(NC(=O)N2CCN(C)CC2)cc(-c2c(Nc3cc[nH]n3)nc3cccnn23)n1 [Cpd 77, 4-methyl-N-(2-methyl-6-(2-(1H-pyrazol-3-ylamino)imidazo[1,2-b]pyridazin-3-yl)-4-pyrimidinyl)-1-piperazinecarboxamide]
- IC50 [1]: 1640 nM
- IC50 (mTOR): 2720 nM

SMILES: COc1ccc(-c2ccc3nc(Nc4ccn[nH]4)c(-c4nc(C)nc(N)n4)n3c2)cc1CO [Cpd 286]
- IC50 [1]: 10 nM
- IC50 (mTOR): 120 nM

SMILES: Cc1nc(Nc2ccc(N3CCOCC3)nn2)cc(-c2c(Nc3cc[nH]n3)nc3ccccn23)n1 [Cpd 49, 3-(2-methyl-6-((6-(4-morpholinyl)-3-pyridazinyl)amino)-4-pyrimidinyl)-N-1H-pyrazol-3-ylimidazo[1,2-a]pyridin-2-amine]
- IC50 [1]: 60 nM
- IC50 (mTOR): 80 nM

SMILES: CNC(=O)c1cc(Nc2ccn[nH]2)n(-c2cc(N)nc(C)n2)n1 [Cpd 14, 5-(1H-pyrazol-5-ylamino)-1-(6-amino-2-methylpyrimidin-4-yl)-N-methyl-1H-pyrazole-3-carboxamide]
- IC50 [1]: 440 nM
- IC50 (mTOR): 120 nM

SMILES: CNS(=O)(=O)c1ccc(-c2ccc3nc(Nc4cc[nH]n4)c(-c4nc(C)nc(N)n4)n3c2)cc1 [Cpd 351, 4-(3-(4-amino-6-methyl-1,3,5-triazin-2-yl)-2-(1H-pyrazol-3-ylamino)imidazo[1,2-a]pyridin-6-yl)-N-methylbenzenesulfonamide]
- IC50 [1]: 30 nM
- IC50 (mTOR): 230 nM

SMILES: Cc1nc(N)nc(-c2c(Nc3cnn(C(=O)Oc4ccccc4)c3)nc3ccccn23)n1 [Cpd 209, phenyl 4-((3-(4-amino-6-methyl-1,3,5-triazin-2-yl)imidazo[1,2-a]pyridin-2-yl)amino)-1H-pyrazole-1-carboxylate]
- IC50 [1]: 110 nM
- IC50 (mTOR): 300 nM
